Assay results reported in patent US8871280B1, “Compositions and methods for treating fungal activity in plants or soil” (The United States of America, as represented by the …, priority 2011, dated 2014).

Key:
[1] = system: Rhizoctonia solani; assay: Poison food technique (contact action), mycelial growth inhibition in PDA; type: cell-based, Rhizoctonia solani AG-4, isolate Rs 23A; settings: for PoisonB1 % inhibition: poison bed experiment 1; for PoisonB2 % inhibition: poison bed experiment 2
Procedure: (§1) Fungal isolate and preparation of inoculum: Rhizoctonia solani AG-4, isolate Rs 23A is a highly virulent pathogenic isolate which infects many vegetables, ornamentals and turfgrasses (Lewis, J. A., and G. C. Papavizas, Soil Biology and Biochemistry, 9:195-201 (1987)). The fungus was grown in potato dextrose agar (PDA) plates and fungal plugs from the freshly growing mycelium were mixed with moist sterilized cracked wheat in a 2 L flask for 15 days in dark at 22° C. (Lakshman, D. K., et al., Proceedings of the National Academy of Science, USA, 95: 6425-6429 (1998)). The infested wheat was air dried in a sterile hood for 3 days, blended in a homogenizer and sieved through a mesh and stored at 2° C. before soil inoculation. A dose response of the inocula was carried out by thoroughly mixing using 0.25, 0.5, 0.75, 1.0, 1.25 and 1.50 g inoculums per Kg dry weight potting soil plus sterile water to maintain 25-30% moisture and incubating at room temperature for two weeks before sowing cucumber (cv muncher) seeds with the infested soil. The percent germination and post-emergence damping off of cucumber seedlings were recorded. The lowest inoculums dose that induced 100% postemergence damping off was estimated to be 1 to 1.25 g/Kg soil for inocula prepared over the span of the experiments. For soil fumigation with plant extracts (PEs), each time the minimum inoculum dose giving rise to 100% damping off was used.
In vitro bioassays: Two in vitro bioassay methods were used to investigate the mycelial growth inhibitory potentials of PEs. In the poison food technique, test chemical/plant extract was mixed at concentrations of 15, 30, 45, 60, 75, and 150 μl per 20 ml autoclaved PDA at 50° C., poured on three sterile disposable plastic plates (100×15 mm, Fisherbrand) at 20 ml/plate and cooled to room temperature to solidify (Dhingra, O.D., and J. B. Sinclair, 1995, Basic Plant Pathology Methods, 2nd Edition, Lewis Publishers, Boca Raton and London). […] Each plate was seeded in the center with a 5 mm diameter agar disk of the freshly grown Rhizoctonia pathogen, mycelial side facing the medium, and sealed with stretched Parafilm® M (Fisher Scientific). The plates were incubated in the dark at room temperature and when the pathogen reached to the edge of the plates in the control treatment (soybean oil), radial measurement of fungal growth in plates treated with PEs were recorded by taking three measurements from each plate. The experiment was repeated one more time. The percent mycelial growth inhibition (MGI) due to PE was calculated using the following formula: […] where dc=Avg. radial growth in mm of pathogen in control plate; dt=avg. radial growth in mm of pathogen in treated plate.

[2] = system: Rhizoctonia solani; assay: Filter disk fumigation method, mycelial growth inhibition on PDA; type: cell-based, Rhizoctonia solani AG-4, isolate Rs 23A; settings: for Fumig1 % inhibition: fumigation experiment 1; for Fumig2 % inhibition: fumigation experiment 2
Procedure: as §1
In the second protocol, the chemical was kept not in direct contact with the fungus and we hypothesized that the plant extract will most likely influence the growth of the pathogen by fumigation action. In this approach, three sterile 15 mm filter paper (Whatman International Ltd, Maidstone, UK) disks were placed on the edge of each of three plates on the PDA. Each disk was impregnated in the center with various amounts (5-50 ul/disk) of the test solution/suspension. For negative control, only soybean oil was placed in the filter disk. […] The average radial growth was calculated and the experiment was repeated one more time. Percent growth inhibition was calculated as reported for poison bed assay.

[3] = system: Rhizoctonia solani; assay: Fungicidal vs fungistatic potential (regrowth of mycelial plugs on fresh PDA, 7 days); type: cell-based, Rhizoctonia solani AG-4, isolate Rs 23A
Procedure: The fungicidal and fungistatic potential of the PEs were determined by the method described by Garber and Houstan (Garber R. H., and B. R. Houston, Phytopathology, 49: 449-450 (1959)). In brief, three 5 mm diameter plugs were taken from the peripheral mycelial growth from each plate and placed in a fresh PDA plate. Following incubation at room temperature for 7 days, observations were recorded for new mycelial growth (fungistatic) or no mycelial growth (fungicidal). As control, peripheral mycelial plugs from soybean oil amended PDA plates were checked for fresh mycelial growth in fresh PDA plates.

[4] = system: cucumber seeds; assay: Greenhouse assay of seed germination and phytotoxicity, soil treated with plant extract alone; settings: for % Seed germination (+ PE only) / Avg. seed germination (+ PE only): cucumber
Procedure: Soil treatment: For each treatment, 300 g of dry greenhouse soli (Pro-mix, Premier Horticulture LTD, Red Hill, Pa.) was thoroughly mixed with Rhizoctonia inoculum and incubated for 15 days as described above. […] The infested soil treated with only the carrier solution served as an untreated control. Following the treatment, the soil was thoroughly stirred to mix the contents and incubated in a double polythene bag closed tightly in the dark at room temperature for four days for fumigation to occur. Following the incubation, the bag was opened to allow as much PE to dissipate as possible. This was done by sprinkling the surface soil with sterile water every other day, and stirring the soil once every day for seven days. For assay of effect on seed germination and phytotoxicity of the plant extracts, soil was treated with plant extract formulations alone.
Greenhouse studies: Treated soil from each treatment was distributed to 4-inch plastic pots into which 12 seeds of cucumbers (95-100% germination) were sown and lightly watered to keep soil moist. The treatments were color coded and pots were randomized across treatment. All plants were kept in a greenhouse between 20° C. (night) to 26° C. (day) with 14 h of light. There were three pots per treatment in each experiment, and the experiment was repeated three times. As positive control, a broad spectrum popular soil fungicide Banrot® 40 WP (The Scotts Company, Ohio) was used following manufacturer's recommendation to control the disease. Total number of seedlings without any sign of damping off in each pot was recorded and percentage of disease suppression were calculated four weeks after sowing cucumber seeds.

[5] = system: Rhizoctonia solani; assay: Greenhouse suppression of damping off of cucumber seedlings in R. solani infested soil amended with plant extract; type: in vivo, Rhizoctonia solani AG-4, isolate Rs 23A; settings: for % Disease suppression (+ PE + R. solani): cucumber damping off, soil amendment at 0.3% (v/w), four weeks after sowing; for Avg. seed Germination (+ PE + R. solani): cucumber, 12 seeds sown per pot, infested soil amended with 0.3% PE
[6] = in vivo, 0.3 % of PE in soil (3000 ppm)

SMILES | PoisonB1 % inhibition ([1]; amount oil 15 μL/20 mL plate) [%] | PoisonB2 % inhibition ([1]; amount oil 15 μL/20 mL plate) [%] | PoisonB1 % inhibition ([1]; amount oil 30 μL/20 mL plate) [%] | PoisonB2 % inhibition ([1]; amount oil 30 μL/20 mL plate) [%] | PoisonB1 % inhibition ([1]; amount oil 45 μL/20 mL plate) [%] | PoisonB2 % inhibition ([1]; amount oil 45 μL/20 mL plate) [%] | PoisonB1 % inhibition ([1]; amount oil 60 μL/20 mL plate) [%] | PoisonB2 % inhibition ([1]; amount oil 60 μL/20 mL plate) [%] | PoisonB1 % inhibition ([1]; amount oil 75 μL/20 mL plate) [%] | PoisonB2 % inhibition ([1]; amount oil 75 μL/20 mL plate) [%] | PoisonB1 % inhibition ([1]; amount oil 150 μL/20 mL plate) [%] | PoisonB2 % inhibition ([1]; amount oil 150 μL/20 mL plate) [%] | Fumig1 % inhibition ([2]; amount oil 15 μL/20 mL plate) [%] | Fumig2 % inhibition ([2]; amount oil 15 μL/20 mL plate) [%] | Fumig2 % inhibition ([2]; amount oil 30 μL/20 mL plate) [%] | Fumig2 % inhibition ([2]; amount oil 45 μL/20 mL plate) [%] | Effect (fumigation) ([3]; amount oil 15 μL/20 mL plate) | Effect (fumigation) ([3]; amount oil 30 μL/20 mL plate) | Effect (fumigation) ([3]; amount oil 45 μL/20 mL plate) | Effect (fumigation) ([3]; amount oil 60 μL/20 mL plate) | also measured
CC=Cc1ccc(OC)cc1 [Anethole] | 100 | 100 | 100 | 100 | 100 | 100 | 100 | 100 | 100 | 100 | 100 | 100 | 99 | 90 | 85 | 86 | S | S | S | S | Inhibition of R. solani growth by contact (poison bed assay), in words ([1]; in vitro, PDA): potent inhibitors; Fumig2 % inhibition ([2]; amount oil 60 μL/20 mL plate): 89%; Fumig2 % inhibition ([2]; amount oil 75 μL/20 mL plate): 97%; Fumig2 % inhibition ([2]; amount oil 150 μL/20 mL plate): 102%; Inhibition of R. solani growth by fumigation action, in words ([2]; in vitro, filter disk): potent inhibitors; Effect (poison bed, contact action) ([3]; amount oil 15 μL/20 mL plate): S; Effect (poison bed, contact action) ([3]; amount oil 30 μL/20 mL plate): S; Effect (fumigation) ([3]; amount oil 75 μL/20 mL plate): S; Effect (fumigation) ([3]; amount oil 150 μL/20 mL plate): S; Fungicidal vs fungistatic nature at higher concentrations ([3]; in vitro, higher concentrations): fungicidal; % Seed germination (+ PE only) [4, 6]: 75.00%; Avg. seed germination (+ PE only) [4, 6]: 9.00; % Disease suppression (+ PE + R. solani) [5]: 58.33%; Avg. seed Germination (+ PE + R. solani) [5]: 7.00
Cc1ccc(C(C)C)c(O)c1 [Thymol] | 100 | 42 | 100 | 100 | 100 | 100 | 100 | 100 | 100 | 100 | 100 | 100 | 77 | 91 | 93 | 94 | S | S | S | S | Fumig1 % inhibition ([2]; amount oil 30 μL/20 mL plate): 86%; Fumig1 % inhibition ([2]; amount oil 45 μL/20 mL plate): 90%; Fumig1 % inhibition ([2]; amount oil 60 μL/20 mL plate): 89%; Fumig1 % inhibition ([2]; amount oil 75 μL/20 mL plate): 93%; Fumig1 % inhibition ([2]; amount oil 150 μL/20 mL plate): 96%; Effect (poison bed, contact action) ([3]; amount oil 15 μL/20 mL plate): S; Effect (poison bed, contact action) ([3]; amount oil 30 μL/20 mL plate): S; Effect (poison bed, contact action) ([3]; amount oil 45 μL/20 mL plate): S; Effect (poison bed, contact action) ([3]; amount oil 60 μL/20 mL plate): S; Effect (fumigation) ([3]; amount oil 75 μL/20 mL plate): S; Effect (poison bed, contact action) ([3]; amount oil 75 μL/20 mL plate): S; Effect (fumigation) ([3]; amount oil 150 μL/20 mL plate): S; Effect (poison bed, contact action) ([3]; amount oil 150 μL/20 mL plate): S; Fungicidal vs fungistatic nature ([3]; in vitro, fumigation and contact action): fungistatic; Avg. seed germination (+ PE only) [4, 6]: 8.00; % Disease suppression (+ PE + R. solani) [5]: 27.75%; Avg. seed Germination (+ PE + R. solani) [5]: 3.33
Cc1ccc(C(C)C)cc1O [Carvacrol] | 100 | 100 | 100 | 100 | 100 | 100 | 100 | 100 | 100 | 100 | 100 | 100 | 88 | 87 | 91 | 91 | S | S | S | S | Fumig1 % inhibition ([2]; amount oil 30 μL/20 mL plate): 94%; Fumig1 % inhibition ([2]; amount oil 45 μL/20 mL plate): 100%; Fumig1 % inhibition ([2]; amount oil 60 μL/20 mL plate): 100%; Fumig2 % inhibition ([2]; amount oil 60 μL/20 mL plate): 93%; Fumig1 % inhibition ([2]; amount oil 75 μL/20 mL plate): 99%; Fumig2 % inhibition ([2]; amount oil 75 μL/20 mL plate): 96%; Fumig1 % inhibition ([2]; amount oil 150 μL/20 mL plate): 100%; Fumig2 % inhibition ([2]; amount oil 150 μL/20 mL plate): 100%; Effect (fumigation) ([3]; amount oil 75 μL/20 mL plate): S; Effect (fumigation) ([3]; amount oil 150 μL/20 mL plate): S; Avg. seed germination (+ PE only) ([4]; 12 seeds sown per pot, soil amended with 0.3% PE, no pathogen): 4.00; % Seed germination (+ PE only) ([4]; soil amended with 0.3% PE, no pathogen): 33.33%; Phytotoxicity (cucumber seed germination and seedling growth), in words ([4]; greenhouse, soil amendment): slightly inhibited; % Disease suppression (+ PE + R. solani) [5]: 47.25%
